The text below walks through data of patent US9273040B2 (Merck Sharp & Dohme Corp., priority 2011, dated 2016).

The target of assay [1] is T1, human Nav1.5 channels stably expressed in HEK 293 cells (Homo sapiens, UniProt Q14524).
T1 construct: expressed in transfected cells
The experiment in a line: PatchXpress 7000 automated patch-clamp, sodium current. The format is cell-based. The following applies: selectivity over Nav1.5. The source says:
(§1) To measure state and use-dependent sodium channel inhibition, test compounds were further characterized in an automated PatchXpress® assay (Molecular Devices). Two voltage-clamp protocols were used. 1) Use-dependent protocol: Cells were held at a membrane potential 20 mV negative to the potential at which ˜50% of the channels are inactivated (V0.5 inact). A train of 30 ms depolarizations to −20 mV was applied to the cells expressing Nav1.7 at a frequency of 10 Hz. […] Data was collected in the absence and presence of drug, and after drug washout. 2) A double-pulse protocol was used to measure inactivated state block. Cells were held at a potential 20 mV negative to V0.5 inact. A 8000 ms pre-pulse 7 mV positive to V0.5 inact was given followed by a hyperpolarizing 2 ms pulse to −120 mV and a 20 ms test pulse to −20 mV. Protocol was applied to cells in the absence, presence of compound and after washout. The temperature of PatchXpress instruments was maintained at 22° C. The following recording solutions were used. Internal solution (mM): 30 CsCl, 5 HEPES, 10 EGTA, 120 CsF, 5 NaF, 2MgCl2, pH=7.3 with CsOH, 324 mosmo. External solution (mM): 120 NMDG, 40 NaCl, 1 KCl, 0.5 MgCl2, 5 HEPES, 2.7 CaCl2, pH=7.5 with NMDG-OH.
(§2) For all electrophysiology experiments, offline analysis was used to correct for current rundown and to determine percent inhibition as a function of drug concentration. IC50 values were determined by fitting to the Hill equation.
On the technique in general: In patch-clamp work, channel activity is measured electrically.

Assay [2] has as its target T2, human Nav1.7 channels stably expressed in HEK 293 cells (Homo sapiens, UniProt Q15858).
T2 construct: expressed in transfected cells
The assay is described as above. The class given is cell-based. The settings on record: 22° C., read-out: potency for the Nav 1.7 sodium ion channel (as measured by PatchXpress).
From the text: as §1, §2

T2 sequence (Q15858 whole entry): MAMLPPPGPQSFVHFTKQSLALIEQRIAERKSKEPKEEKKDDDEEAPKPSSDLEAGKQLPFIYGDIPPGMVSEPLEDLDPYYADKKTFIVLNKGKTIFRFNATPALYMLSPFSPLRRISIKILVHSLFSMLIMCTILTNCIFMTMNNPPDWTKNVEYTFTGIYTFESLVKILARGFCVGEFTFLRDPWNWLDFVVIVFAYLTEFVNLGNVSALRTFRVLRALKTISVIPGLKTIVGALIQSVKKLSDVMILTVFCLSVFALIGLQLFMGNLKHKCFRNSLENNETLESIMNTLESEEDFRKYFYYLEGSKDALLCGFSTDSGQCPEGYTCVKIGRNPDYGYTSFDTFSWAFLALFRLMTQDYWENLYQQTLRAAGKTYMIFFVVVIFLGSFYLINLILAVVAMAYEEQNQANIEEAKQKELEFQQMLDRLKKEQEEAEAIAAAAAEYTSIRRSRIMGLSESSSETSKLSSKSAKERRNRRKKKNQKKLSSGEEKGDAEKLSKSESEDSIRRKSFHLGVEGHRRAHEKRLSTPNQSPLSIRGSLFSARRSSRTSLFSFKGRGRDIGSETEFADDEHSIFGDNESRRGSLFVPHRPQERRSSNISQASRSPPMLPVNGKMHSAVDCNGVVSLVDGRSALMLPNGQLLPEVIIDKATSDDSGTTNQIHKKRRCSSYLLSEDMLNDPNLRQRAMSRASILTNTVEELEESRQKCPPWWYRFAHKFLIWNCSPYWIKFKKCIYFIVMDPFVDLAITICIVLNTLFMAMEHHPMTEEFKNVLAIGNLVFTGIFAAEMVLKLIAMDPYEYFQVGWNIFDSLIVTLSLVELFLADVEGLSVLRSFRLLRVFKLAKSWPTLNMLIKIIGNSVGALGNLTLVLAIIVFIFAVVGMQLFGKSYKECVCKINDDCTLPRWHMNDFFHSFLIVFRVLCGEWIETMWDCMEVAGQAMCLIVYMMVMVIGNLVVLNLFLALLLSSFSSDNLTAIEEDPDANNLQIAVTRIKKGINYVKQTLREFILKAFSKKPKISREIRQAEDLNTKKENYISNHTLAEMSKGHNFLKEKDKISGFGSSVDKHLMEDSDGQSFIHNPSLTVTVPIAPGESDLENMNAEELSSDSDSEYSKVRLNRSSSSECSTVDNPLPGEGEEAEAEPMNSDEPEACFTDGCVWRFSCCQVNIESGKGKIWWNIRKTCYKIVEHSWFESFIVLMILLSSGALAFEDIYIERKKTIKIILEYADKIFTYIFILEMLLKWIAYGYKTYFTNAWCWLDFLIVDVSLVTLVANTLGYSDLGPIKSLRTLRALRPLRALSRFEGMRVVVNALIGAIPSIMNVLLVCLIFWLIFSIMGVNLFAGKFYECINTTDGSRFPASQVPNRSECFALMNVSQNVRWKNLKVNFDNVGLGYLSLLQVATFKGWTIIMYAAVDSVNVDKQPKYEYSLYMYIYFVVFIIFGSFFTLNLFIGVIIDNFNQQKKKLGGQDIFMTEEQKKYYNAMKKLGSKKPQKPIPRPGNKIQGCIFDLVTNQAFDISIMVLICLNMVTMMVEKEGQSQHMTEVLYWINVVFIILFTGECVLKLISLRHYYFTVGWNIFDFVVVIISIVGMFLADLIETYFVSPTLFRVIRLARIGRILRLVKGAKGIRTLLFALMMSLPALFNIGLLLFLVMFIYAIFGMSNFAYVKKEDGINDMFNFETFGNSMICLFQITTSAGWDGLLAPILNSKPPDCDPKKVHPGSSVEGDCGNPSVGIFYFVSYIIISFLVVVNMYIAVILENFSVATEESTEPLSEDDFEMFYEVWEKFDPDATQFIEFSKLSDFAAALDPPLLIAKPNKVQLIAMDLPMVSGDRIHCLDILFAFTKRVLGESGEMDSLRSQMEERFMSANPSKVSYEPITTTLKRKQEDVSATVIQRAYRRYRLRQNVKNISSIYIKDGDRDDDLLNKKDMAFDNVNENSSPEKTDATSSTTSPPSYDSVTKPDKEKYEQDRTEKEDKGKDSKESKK
T1 sequence (Q14524 whole entry): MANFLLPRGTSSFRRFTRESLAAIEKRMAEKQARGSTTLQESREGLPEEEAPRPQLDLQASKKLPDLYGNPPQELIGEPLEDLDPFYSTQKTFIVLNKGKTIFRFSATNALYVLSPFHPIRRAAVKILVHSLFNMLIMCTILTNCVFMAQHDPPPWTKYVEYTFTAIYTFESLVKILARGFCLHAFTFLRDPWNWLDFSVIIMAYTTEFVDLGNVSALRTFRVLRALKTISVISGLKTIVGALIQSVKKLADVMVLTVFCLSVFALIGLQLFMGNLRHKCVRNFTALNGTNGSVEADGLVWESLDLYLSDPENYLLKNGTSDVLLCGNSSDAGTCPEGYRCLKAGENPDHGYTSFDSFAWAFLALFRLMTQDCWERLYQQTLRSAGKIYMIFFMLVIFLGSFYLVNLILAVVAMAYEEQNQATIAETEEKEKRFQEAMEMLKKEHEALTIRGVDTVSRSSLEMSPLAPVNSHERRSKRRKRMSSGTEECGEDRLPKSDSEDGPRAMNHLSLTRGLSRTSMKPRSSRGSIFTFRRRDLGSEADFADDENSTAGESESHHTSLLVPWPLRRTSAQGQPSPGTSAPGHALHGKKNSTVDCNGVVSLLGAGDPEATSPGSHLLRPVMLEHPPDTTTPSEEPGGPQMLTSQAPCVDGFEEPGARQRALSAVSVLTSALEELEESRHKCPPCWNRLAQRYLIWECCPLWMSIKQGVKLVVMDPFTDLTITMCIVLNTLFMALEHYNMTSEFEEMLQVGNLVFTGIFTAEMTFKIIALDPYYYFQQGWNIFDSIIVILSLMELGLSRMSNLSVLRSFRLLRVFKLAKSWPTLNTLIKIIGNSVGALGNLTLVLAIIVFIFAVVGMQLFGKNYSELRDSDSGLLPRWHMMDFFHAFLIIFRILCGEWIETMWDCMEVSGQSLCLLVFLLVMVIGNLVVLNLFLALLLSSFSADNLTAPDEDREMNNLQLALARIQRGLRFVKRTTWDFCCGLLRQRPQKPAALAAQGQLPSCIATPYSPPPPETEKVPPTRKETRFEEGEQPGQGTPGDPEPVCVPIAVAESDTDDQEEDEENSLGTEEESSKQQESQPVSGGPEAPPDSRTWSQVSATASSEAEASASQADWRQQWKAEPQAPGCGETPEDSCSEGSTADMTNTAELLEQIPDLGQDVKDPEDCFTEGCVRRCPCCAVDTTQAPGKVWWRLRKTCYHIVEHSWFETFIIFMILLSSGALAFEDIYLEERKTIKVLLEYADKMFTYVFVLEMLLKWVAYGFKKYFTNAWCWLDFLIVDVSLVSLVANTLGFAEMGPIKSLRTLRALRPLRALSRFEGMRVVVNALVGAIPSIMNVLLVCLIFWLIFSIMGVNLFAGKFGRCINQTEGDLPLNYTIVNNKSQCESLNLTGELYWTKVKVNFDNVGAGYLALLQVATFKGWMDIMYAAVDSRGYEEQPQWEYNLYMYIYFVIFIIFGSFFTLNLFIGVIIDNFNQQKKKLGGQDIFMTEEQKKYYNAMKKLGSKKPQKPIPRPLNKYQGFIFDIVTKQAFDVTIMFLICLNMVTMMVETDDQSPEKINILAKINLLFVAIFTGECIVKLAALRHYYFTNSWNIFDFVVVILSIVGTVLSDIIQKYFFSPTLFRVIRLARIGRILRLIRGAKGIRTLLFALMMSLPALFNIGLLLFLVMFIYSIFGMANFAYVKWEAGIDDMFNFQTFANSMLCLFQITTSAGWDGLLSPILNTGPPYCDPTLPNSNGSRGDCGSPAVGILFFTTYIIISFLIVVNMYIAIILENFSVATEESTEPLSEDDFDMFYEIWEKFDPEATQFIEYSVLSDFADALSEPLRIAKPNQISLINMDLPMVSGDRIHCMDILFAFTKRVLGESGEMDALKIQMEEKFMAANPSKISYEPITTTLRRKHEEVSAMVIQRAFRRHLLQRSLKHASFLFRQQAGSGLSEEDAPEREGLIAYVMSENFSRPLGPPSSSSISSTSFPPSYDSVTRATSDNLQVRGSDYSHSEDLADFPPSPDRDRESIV

As for `O=c1oc2cc(S(=O)(=O)Nc3ncns3)c(F)cc2n1Cc1cccc2c1CC(NCC(F)F)CC2` (racemic) [Compound 23-13, (+/−)-3-({7-[(2,2-difluoroethyl)amino]-5,6,7,8-tetrahydronaphthalen-1-yl}methyl)-5-fluoro-2-oxo-N-1,2,4-thiadiazol-5-yl-2,3-dihydro-1,3-benzoxazole-6-sulfonamide], the “ratio of Nav 1.5:Nav 1.7 potency, determined by PatchXpress measurement” value (“ratio of Nav 1.5:Nav 1.7 potency” for short) in assay [1] is given as 121. In assay [2], the IC50 came out at 84 nM.
In the same order, the values of `CN(C)C1CCc2cccc(Cn3c(=O)oc4cc(S(=O)(=O)Nc5ncns5)c(F)cc43)c2C1` (racemic) [Compound 23-15, (+/−)-3-{[7-(dimethylamino)-5,6,7,8-tetrahydronaphthalen-1-yl]methyl}-5-fluoro-2-oxo-N-1,2,4-thiadiazol-5-yl-2,3-dihydro-1,3-benzoxazole-6-sulfonamide] are 207 and 72 nM.
For `O=c1oc2cc(S(=O)(=O)Nc3ncns3)c(F)cc2n1Cc1cccc2c1CC(N1CCOCC1)CC2` (racemic) [Compound 23-16, (+/−)-5-fluoro-3-[(7-morpholin-4-yl-5,6,7,8-tetrahydronaphthalen-1-yl)methyl]-2-oxo-N-1,2,4-thiadiazol-5-yl-2,3-dihydro-1,3-benzoxazole-6-sulfonamide], the “ratio of Nav 1.5:Nav 1.7 potency” value in assay [1] was determined as 431. The IC50 in assay [2] turned out to be 70 nM.
For the molecule `NC1Cc2cccc(Cn3c(=O)oc4cc(S(=O)(=O)Nc5ncns5)c(F)cc43)c2C1` (racemic) [Compound 23-17, (+/−)-3-[(2-amino-2,3-dihydro-1H-inden-4-yl)methyl]-5-fluoro-2-oxo-N-1,2,4-thiadiazol-5-yl-2,3-dihydro-1,3-benzoxazole-6-sulfonamide], the “ratio of Nav 1.5:Nav 1.7 potency” value in assay [1] is recorded as 321. Further, the IC50 in assay [2] was determined as 50 nM.
For `CNC1CCc2cccc(Cn3c(=O)oc4cc(S(=O)(=O)Nc5ncns5)ccc43)c2C1` (racemic) [Compound 23-18, (+/−)-3-{[7-(methylamino)-5,6,7,8-tetrahydronaphthalen-1-yl]methyl}-2-oxo-N-1,2,4-thiadiazol-5-yl-2,3-dihydro-1,3-benzoxazole-6-sulfonamide] the same measures were 642 and 47 nM.
In the same order, the values of `O=c1oc2cc(S(=O)(=O)Nc3ncns3)c(F)cc2n1Cc1cccc2c1CC(N1CCC1)CC2` (racemic) [Compound 23-19, (+/−)-3-[(7-azetidin-1-yl-5,6,7,8-tetrahydronaphthalen-1-yl)methyl]-5-fluoro-2-oxo-N-1,2,4-thiadiazol-5-yl-2,3-dihydro-1,3-benzoxazole-6-sulfonamide] are 499 and 32 nM.
For `O=c1oc2cc(S(=O)(=O)Nc3ncns3)c(F)cc2n1Cc1cccc2c1CC(N1CCCC1)CC2` (racemic) [Compound 23-20, (+/−)-5-fluoro-2-oxo-3-[(7-pyrrolidin-1-yl-5,6,7,8-tetrahydronaphthalen-1-yl)methyl]-N-1,2,4-thiadiazol-5-yl-2,3-dihydro-1,3-benzoxazole-6-sulfonamide] the same measures were 802 and 30 nM.
As for `O=c1oc2cc(S(=O)(=O)Nc3ncns3)c(F)cc2n1Cc1cccc2c1CC(NCCF)CC2` (racemic) [Compound 23-21, (+/−)-5-fluoro-3-({7-[(2-fluoroethyl)amino]-5,6,7,8-tetrahydronaphthalen-1-yl}methyl)-2-oxo-N-1,2.4-thiadiazol-5-yl-2,3-dihydro-1,3-benzoxazole-6-sulfonamide], the “ratio of Nav 1.5:Nav 1.7 potency” value in assay [1] is listed as 920. For the same molecule, the IC50 in assay [2] was 28 nM.
Turning to `O=c1oc2cc(S(=O)(=O)Nc3ncns3)c(F)cc2n1Cc1cccc2c1CC(NCCO)CC2` (racemic) [Compound 23-22, (+/−)-5-fluoro-3-({7-[(2-hydroxyethyl)amino]-5,6,7,8-tetrahydronaphthalen-1-yl}methyl)-2-oxo-N-1,2,4-thiadiazol-5-yl-2,3-dihydro-1,3-benzoxazole-6-sulfonamide], the “ratio of Nav 1.5:Nav 1.7 potency” value in assay [1] was 221. Further, the IC50 in assay [2] was found to be 26 nM.
In the same order, the values of `O=c1oc2cc(S(=O)(=O)Nc3ncns3)c(F)cc2n1Cc1cccc2c1CC(NCc1ccccc1)CC2` (racemic) [Compound 23-23, (+/−)-3-{[7-(benzylamino)-5,6,7,8-tetrahydronaphthalen-1-yl]methyl}-5-fluoro-2-oxo-N-1,2,4-thiadiazol-5-yl-2,3-dihydro-1,3-benzoxazole-6-sulfonamide] are 502 and 24 nM.
In the same order, the values of `CC(c1cccc2c1CC(N)CC2)n1c(=O)oc2cc(S(=O)(=O)Nc3ncns3)c(F)cc21` (racemic) [Compound 23-24, (R,R and S,R) or (R,S and S,S)-3-[1-(7-amino-5,6,7,8-tetrahydronaphthalen-1-yl)ethyl]-5-fluoro-2-oxo-N-1,2,4-thiadiazol-5-yl-2,3-dihydro-1,3-benzoxazole-6-sutfonamide] are 1119 and 15 nM.
Turning to `CNC1CCc2cccc(Cn3c(=O)oc4cc(S(=O)(=O)Nc5ncns5)c(F)cc43)c2C1` (racemic) [Compound 23-26, (+/−)-5-fluoro-3-{[7-(methylamino)-5,6,7,8-tetrahydronaphthalen-1-yl]methyl}-2-oxo-N-1,2,4-thiadiazol-5-yl-2,3-dihydro-1,3-benzoxazole-6-sulfonamide], the “ratio of Nav 1.5:Nav 1.7 potency” value in assay [1] was 2451. The IC50 in assay [2] amounted to 12 nM.
Take `CC(c1cccc2c1CNCC2)n1c(=O)oc2cc(S(=O)(=O)Nc3ncns3)c(Cl)cc21` (racemic) [Compound 34-7, (+/−)-5-chloro-2-oxo-3-[1-(1,2,3,4-tetrahydroisoquinolin-8-yl)ethyl]-N-1,2,4-thiadiazol-5-yl-2,3-dihydro-1,3-benzoxazole-6-sulfonamide]: the “ratio of Nav 1.5:Nav 1.7 potency” value in assay [1] was 129. Moreover, the IC50 in assay [2] is 565 nM.
Consider `CC(c1cccc2c1CN(S(C)(=O)=O)CC2)n1c(=O)oc2cc(S(=O)(=O)Nc3ncns3)c(Cl)cc21` (racemic) [Compound 36-2, (+/−)-5-chloro-3-{1-[2-(methylsulfonyl)-1,2,3,4-tetrahydroisoquinolin-8-yl]ethyl}-2-oxo-N-1,2,4-thiadiazol-5-yl-2,3-dihydro-1,3-benzoxazole-6-sulfonamide], for which the “ratio of Nav 1.5:Nav 1.7 potency” value in assay [1] came to 13. Moreover, in assay [2], the IC50 worked out at 334 nM.
As for `O=c1oc2cc(S(=O)(=O)Nc3nccs3)c(F)cc2n1Cc1cccc2c1CNCC2F` (racemic) [Compound 43-26, (+/-)-5-fluoro-3-[(4-fluoro-1,2,3,4-tetrahydroisoquinolin-8-yl)methyl]-2-oxo-N-1,3-thiazol-2-yl-2,3-dihydro-1,3-benzoxazole-6-sulfonamide], in assay [1], the “ratio of Nav 1.5:Nav 1.7 potency” value turned out to be 150. The IC50 in assay [2] is 141 nM.
`COC(=O)NC1CCc2cccc(Cn3c(=O)oc4cc(S(=O)(=O)Nc5ncns5)c(F)cc43)c2C1` (single isomer, unassigned) [Compound 23-1, methyl (8-((6-(N-(1,2,4-thiadiazol-5-yl)sulfamoyl)-5-fluoro-2-oxobenzo[d]oxazol-3(2H)-yl)methyl)-1,2,3,4-tetrahydronaphthalen-2-yl)carbamate]: the “ratio of Nav 1.5:Nav 1.7 potency” value in assay [1] came out at 71. In assay [2], the IC50 turned out to be 122 nM.
Turning to `CC(=O)OCC(=O)NC1CCc2cccc(Cn3c(=O)oc4cc(S(=O)(=O)Nc5ncns5)c(F)cc43)c2C1` (single isomer, unassigned) [Compound 23-4, (R or S)-2-[(8-{[5-fluoro-2-oxo-6-(1,2,4-thiadiazol-5-ylsulfamoyl)-1,3-benzoxazol-3(2H)-yl]methyl}-1,2,3,4-tetrahydronaphthalen-2-yl)amino]-2-oxoethyl acetate], the “ratio of Nav 1.5:Nav 1.7 potency” value in assay [1] is 97. The IC50 in assay [2] was 310 nM.
In the same order, the values of `O=c1oc2cc(S(=O)(=O)Nc3ncns3)c(F)cc2n1Cc1cccc2c1CC(N1CCS(=O)(=O)CC1)CC2` (single isomer, unassigned) [Compound 23-6, (R or S)-3-{[7-(1,1-dioxidothiomorpholin-4-yl)-5,6,7,8-tetrahydronaphthalen-1-yl]methyl}-5-fluoro-2-oxo-N-1,2,4-thiadiazol-5-yl-2,3-dihydro-1,3-benzoxazole-6-sulfonamide] are 146 and 206 nM.
In the same order, the values of `NC1CCc2cccc(Cn3c(=O)oc4cc(S(=O)(=O)Nc5ncns5)ccc43)c2C1` (single isomer, unassigned) [Compound 23-10, (R or S)-3-[(7-amino-5,6,7,8-tetrahydronaphthalen-1-yl)methyl]-2-oxo-N-1,2,4-thiadiazol-5-yl-2,3-dihydro-1,3-benzoxazole-6-sulfonamide] are 167 and 179 nM.
